Results on one compound are retold here after patent US8895610B1, “Platinum (IV) compounds targeting zinc finger domains” (priority 2007, dated 2014).

Several values for one entry are separate records, joined by “and”; a condition that tells them apart may be missing. Equal values may be shown once. Entries after “also recorded” stand apart in the source; their conditions may differ.

Data set [1] deals with HIV-1-transfected HeLa host cells (pNL4-3). Put plainly: Virus release in HIV-transfected HeLa cells (radiolabel, immunoprecipitation). The class given is cell-based, human. Conditions: vs untreated transfected HeLa cells. The text has this:
Briefly, HeLa cells were transfected (calcium phosphate method) with the full-length, infectious HIV-1 molecular clone pNL4-3 to examine single-cycle particle production (Freed, 1994). Transfected cells were metabolically radiolabeled, and cell- and virus-associated proteins were immunoprecipitated and quantified as previously described (Waheed and Freed, 2008). Virus release efficiency was reduced in a concentration-dependent manner with FX101 as compared with untreated controls.

Data set [2] deals with transfected HeLa and HEK-293 cells. Put plainly: Viral transcription or infectivity in transfected HeLa and HEK-293 cells. It counts as cell-based.
Data set [3] deals with virions from HIV-1-transfected HeLa cells (pNL4-3). As to the kind of experiment: Electron micrographs of virions from HIV-1 transfected HeLa cells. The following applies: 10 and 20 uM; vs untreated control cells. The class given is cell-based, human. The procedure: Virions collected from HeLa cells 24 hours post-transfected with pNL4-3 HIV-1 were treated with or without FX101 for 2 hours, washed with phosphate-buffered saline, pelleted by ultracentrifugation, fixed with buffer containing 2% glutaraldehyde and 0.1M sodium cacodylate as described (Freed, 1994), and analyzed by electron microscopy. These images reveal comparative distortions of both viral core and corresponding membranes of viral progeny, consistent with published images of immature virion particles having a thick electron-dense outer shell and an electron-lucent center lacking a typical cone-shaped core, produced by nucleocapsid mutant virions (Tanchou, 1998). Mutational deletion of either or both zinc finger domains of the nucleocapsid protein also produces morphologically altered virions, reduces virion release and alters RNA packaging (Houzet, 2008). The failure of nucleocapsid protein proteins to chaperone viral RNA together with the failure to form the nucleocapsid membrane reflects two roles of nucleocapsid proteins involving zinc finger domains. Obstruction of virion assembly may create impotent virions while maintaining antigens for host humoral immune response as virus-like particles. […]

Data set [4] deals with peripheral CD4+ and CD8+ T-lymphocytes. Put plainly: Circulating CD4+ and CD8+ T-lymphocytes by flow cytometry. It counts as in vivo, domestic cat. How it is done:
Numbers of peripheral CD4^+ and CD8^+ T-lymphocytes in the blood were determined by labeling with mouse monoclonal antibodies to feline CD4^+ (FE1.7B12) and feline CD8^+ (FE1.10E9), obtained from Peter F. Moore, University of California, Davis, Calif. Bound primary antibodies were detected using FITC-conjugated anti-mouse IgG1 (Space-Serotec, Milan, Italy), and the samples were analyzed on a FACScan flow cytometer (Becton Dickinson, San Jose, Calif.). Both a negative (no drug) and positive (integrase inhibitor cocktail) control are included with data from two HK inhibitor-tested felines.

In data set [5] the test system is M2 strain of FIV. Put plainly: Second FIV cat study, plasma viremia (five treated, three control cats). It counts as in vivo, domestic cat. The following applies: after 6 intravenous doses of 3 mg/kg over four weeks, controls showed active viremia. The text has this:
Eight specific-pathogen-free domestic female cats infected >2 years with the M2 strain of FIV were used in another study. Cats were housed individually in a climatized animal facility in accordance with standards, had ad libitum access to fresh water and food, and were sedated with Tiletamine/Zolazepam intramuscularly prior to any procedure. The animals were divided into two groups, with five receiving FX101 in 10% DMSO/saline (treated) and three receiving only 10% DMSO/saline (control). Prior to initiation of the treatment and at scheduled times, samples were collected for hematological and virological analyses. The cats received 6 intravenous doses of 3 mg/kg FX101 over four weeks. Cats were matched by birthdates and infection dates with similar viral blood plasma viremia levels at the onset of the study. […] Current antretrovirals are required on a daily basis; the efficacy of six doses of treatment over four weeks supports a distinct mechanism from the nucleotide/non-nucleotide reverse transcriptase, protease and infectivity inhibitors. Efficacy extends across diverse strains of FIV, in agreement with alterations by platinum(IV) compounds to the zinc-binding nucleocapsid domain being therapeutically targeted. It is anticipated that cotherapies targeting multiple mechanisms may eventually provide viral clearance for an infected host.

For data set [6], the system named is Calcitonin. As to the kind of experiment: Feline blood serum immunofluorescent bead analysis: Calcitonin. The following applies: cats BR, CF. The class given is in vivo, cat. How it is done: Test sera samples from select felines were analyzed using the Rules-Based Medicine (Austin, Tex.) human multi-analyte for 90 measures from a single sample of less than 0.5 mL. The assay uses immunofluorescent beads to simultaneously measure antibody recognition to individually identifiable colored beads, each conjugated with a specific antibody, within a single well plate. Blood samples were drawn preceding (pretreatment) and following (post treatment) one-month FX101 treatment (from felines in Example 6), and are compared with two uninfected control felines. Human cross-reactive antibodies are commonly used for felines, and are relative rather than quantitative measures. Reductions in TNF-alpha and MMP-2 are evident in treated cats; TIMP-1 (Tissue Inhibitor of Metalloproteinases) is not associated with the downregulation of MMP-2. Both MMP-2 and MMP-9, as well as MCP-1, are considered important contributors to the penetration of virally-infected cells across the BBB (Webster, 2006). Additional comments follow the table.

The nature of data set [7]: Blood brain barrier penetration: CSF platinum by graphite furnace atomic absorption. It counts as in vivo, cat. The following applies: final i.v. treatment, both cats. How it is done:
Cerebrospinal fluid (CSF) from cats BR and CF of Example 6 were collected under sedation following humane animal practices. CSF (0.5-1 ml) samples were collected within 15 minutes of FX101 peripheral intravenous (IV) injection to examine for drug penetration into the CNS. Importantly, this analysis was conducted upon the final IV drug treatment, which would most likely evidence resistances to CNS uptake as experienced by other CNS-penetrable drugs. Instead, CSF concentrations (analyzed by graphite furnace atomic absorption spectrometry for this inorganic complex as illustrated for cat “BG”) were equivalent to blood serum concentrations of 5 micrograms/mL in both cats, supporting a continuing unimpeded penetration into the vital CNS compartment through the blood brain barrier.

In the case of `[NH2][Pt]([NH2])([Cl])([Cl])([Cl])[N+](=O)[O-]` [FX101, nitrotrichlorodiamminoPt(IV)], the “p24 Gag proteins” value in data set [1] is “greatly reduced”. The “HIV-1 virus release efficiency” value in data set [1] (concentration-dependent) was “greatly reduced”. Also, the “direct inhibition of viral transcription or infectivity” value in data set [2] is recorded as “did not act as a direct inhibitor of viral transcription or infectivity”. In addition, in data set [3], the “virion morphology (phenotype of virions produced)” value is “immature virions; also recorded: nucleotide-defective and nucleotide-deficient virion particles with morphologically altered phenotypes”. The “Relative CD4+/CD8+ T-Lymphocyte Counts” value was 1.1 and 1.3 in data set [4] (Aug. 2, 2007 pretreatment period); 1.2 in data set [4] (Aug. 23, 2007 start of treatment period); 1.5 and 1.3 in data set [4] (Aug. 30, 2007 treatment period); 1.5 and 2.0 in data set [4] (Dec. 1, 2005 pretreatment period); 0.82 and 1.1 in data set [4] (Feb. 1, 2006 pretreatment period); 1.6 and 0.92 in data set [4] (Jan. 1, 2006 pretreatment period). In addition, the “Relative CD4+/CD8+ T-Lymphocyte Counts” value in data set [4] (Mar. 1, 2006 pretreatment period) was 0.84 and 1.2; in data set [4] (May 8, 2008 (+33 wk) post treatment) it was 1.8 and 1.6; in data set [4] (Nov. 1, 2005 pretreatment period), 0.86 and 0.85; in data set [4] (Oct. 4, 2007 (+2 wk) post treatment), 1.9 and 1.4; in data set [4] (Sep. 4, 2007 treatment period), 1.5 and 1.6. In data set [4] (conclusion of the study, both tested felines), the “final CD4+/CD8+ ratios compared with controls” value is recorded as “remained higher”. Also, the plasma viremia levels entry in data set [5] is on record as “below the detection limit of the assay”. Moreover, the “Calcitonin, relative blood serum measure” value was 2.9 pg/mL in data set [6] (post treatment (one-month FX101 treatment)); 7.6 pg/mL and 11 pg/mL in data set [6] (pretreatment). This compound also registered a blood serum concentrations in data set [7] of 5 micrograms/mL. Further, in data set [7] (within 15 minutes of peripheral i.v. injection), the CSF concentrations was found to be 5 micrograms/mL.
